Results: patent publication US9334246B2, “Substituted triazines for malaria treatment and chemoprophylaxis” (The United States of America, as represented by the …, priority 2013, dated 2016)
Values after ≈ are worked out from the molar mass of the structure shown.

Columns and labels:
P. falciparum D6 = assay: Malaria SYBR Green Fluorescence Assay, D6 strain; type: cell-based, Plasmodium falciparum
P. falciparum W2 = assay: Malaria SYBR Green Fluorescence Assay, W2 strain; type: cell-based, Plasmodium falciparum
P. falciparum C235 = assay: Malaria SYBR Green Fluorescence Assay, C235 strain; type: cell-based, Plasmodium falciparum
P. berghei = assay: Thompson Test, in vivo mouse malaria assay; parameters: species or system mice (ICR strain)
[1] = molecular target: hERG potassium ion channel (Homo sapiens, UniProt Q12809); assay: hERG patch clamp assay (% inhibition at 10 μM)
Sequence of hERG potassium ion channel (Q12809 whole entry): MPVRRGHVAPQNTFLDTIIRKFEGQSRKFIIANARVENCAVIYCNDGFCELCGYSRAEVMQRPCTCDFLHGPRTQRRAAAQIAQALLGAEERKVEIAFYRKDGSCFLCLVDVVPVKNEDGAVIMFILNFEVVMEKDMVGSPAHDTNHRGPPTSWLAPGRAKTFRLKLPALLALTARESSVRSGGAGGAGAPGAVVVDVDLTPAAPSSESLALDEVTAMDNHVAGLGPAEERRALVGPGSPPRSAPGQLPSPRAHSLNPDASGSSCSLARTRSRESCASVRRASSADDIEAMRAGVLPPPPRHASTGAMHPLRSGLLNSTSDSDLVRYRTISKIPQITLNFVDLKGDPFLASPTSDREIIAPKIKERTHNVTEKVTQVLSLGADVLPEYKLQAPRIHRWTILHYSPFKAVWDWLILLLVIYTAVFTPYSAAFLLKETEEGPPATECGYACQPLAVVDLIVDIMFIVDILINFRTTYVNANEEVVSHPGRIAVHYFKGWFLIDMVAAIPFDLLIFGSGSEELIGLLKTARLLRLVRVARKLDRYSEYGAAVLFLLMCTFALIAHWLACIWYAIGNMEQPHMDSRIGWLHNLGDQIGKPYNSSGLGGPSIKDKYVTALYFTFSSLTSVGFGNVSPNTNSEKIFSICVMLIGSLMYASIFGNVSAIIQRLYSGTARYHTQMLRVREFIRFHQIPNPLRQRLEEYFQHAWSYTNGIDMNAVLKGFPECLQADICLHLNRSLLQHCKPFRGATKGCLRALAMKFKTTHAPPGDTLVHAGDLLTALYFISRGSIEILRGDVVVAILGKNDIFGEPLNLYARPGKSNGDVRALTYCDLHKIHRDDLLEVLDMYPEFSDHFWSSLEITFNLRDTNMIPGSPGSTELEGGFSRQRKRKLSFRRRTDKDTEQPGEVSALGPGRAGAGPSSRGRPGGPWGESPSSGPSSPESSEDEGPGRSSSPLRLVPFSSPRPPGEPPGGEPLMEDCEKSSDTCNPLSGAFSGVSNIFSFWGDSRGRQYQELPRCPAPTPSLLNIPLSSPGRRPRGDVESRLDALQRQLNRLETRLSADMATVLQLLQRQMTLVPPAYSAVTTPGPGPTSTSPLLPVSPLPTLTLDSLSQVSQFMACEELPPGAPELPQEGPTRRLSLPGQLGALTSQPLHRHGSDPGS

[2] = % inhibition at 10 μM, patch clamp
[3] = Plasmodium falciparum, SYBR Green Assay

COC1═CC═CC(═C1)C1═NC(NCC2(N)CCCCC2)═NC(═N1)C(Cl)(Cl)Cl [Compound 661]
D6 (P. falciparum D6; SYBR Green Assay): 3 ng/mL
W2 (P. falciparum W2; SYBR Green Assay): 2 ng/mL
C235 (P. falciparum C235; SYBR Green Assay): 8 ng/mL
In vivo Results Thompson Assay (n/N Cures or Suppressive) (P. berghei; (80 × 3): 80 mg/kg for 3 days): (80 × 3) Suppressive
hERG ([1]; hERG activity as % inhibition): 32%

COc1ccc(-c2nc(NC3CC(C)(C)NC(C)(C)C3)nc(C(Cl)(Cl)Cl)n2)cc1OC [Compound 328]
D6 (P. falciparum D6; SYBR Green Assay): 64 ng/mL
W2 (P. falciparum W2; SYBR Green Assay): 40 ng/mL
C235 (P. falciparum C235; SYBR Green Assay): 84 ng/mL
In vivo Results Thompson Assay (n/N Cures or Suppressive) (P. berghei; (80 × 3): 80 mg/kg for 3 days): (80 × 3) 2/5 Cures
hERG [1, 2]: 31%

CCN1CCCC(C1)Nc2nc(Nc3cc(Cl)cc(Cl)c3)nc(n2)C(Cl)(Cl)Cl [Compound 638]
D6 (SYBR Green Assay IC50) (P. falciparum D6): 0.005 µg/mL
W2 (SYBR Green Assay IC50) (P. falciparum W2): 0.005 µg/mL
C235 (SYBR Green Assay IC50) (P. falciparum C235): 0.005 µg/mL
In vivo Results Thompson Assay (n/N Cures or Suppressive) (P. berghei; (80 × 3): 80 mg/kg for 3 days): (80 × 3) Suppressive
hERG (% inhibition) ([1]; 10 μM): 49%

CS(=O)(=O)c1ccc(-c2nc(N3CCCNCC3)nc(C(Cl)(Cl)Cl)n2)cc1 [Compound 96]
D6 (P. falciparum D6; SYBR Green Assay): 70 ng/mL
W2 (P. falciparum W2; SYBR Green Assay): 51 ng/mL
C235 (P. falciparum C235; SYBR Green Assay): 96 ng/mL
In vivo Results Thompson Assay (n/N Cures or Suppressive) (P. berghei; (80 × 3): 80 mg/kg for 3 days): (80 × 3) Suppressive
hERG [1, 2]: 65%

Cc1ccc(-c2nc(N3CCCNCC3)nc(C(Cl)(Cl)Cl)n2)cc1 [Compound 102]
D6 (P. falciparum D6; SYBR Green Assay): 58 ng/mL
W2 (P. falciparum W2; SYBR Green Assay): 44 ng/mL
C235 (P. falciparum C235; SYBR Green Assay): 48 ng/mL
In vivo Results Thompson Assay (n/N Cures or Suppressive) (P. berghei; (80 × 3): 80 mg/kg for 3 days): (80 × 3) Suppressive
hERG [1, 2]: 47%

CC1(C)CC(Nc2nc(-c3ccccc3)nc(C(Cl)(Cl)Cl)n2)CC(C)(C)N1 [Compound 320]
D6 (P. falciparum D6; SYBR Green Assay): 11 ng/mL
W2 (P. falciparum W2; SYBR Green Assay): 2 ng/mL
C235 (P. falciparum C235; SYBR Green Assay): 20 ng/mL
In vivo Results Thompson Assay (n/N Cures or Suppressive) (P. berghei; (40 × 3): 40 mg/kg for 3 days): 1/5
In vivo Results Thompson Assay (n/N Cures or Suppressive) (P. berghei; (80 × 3): 80 mg/kg for 3 days): 4/4

COc1cccc(-c2nc(NC3CCN(C)CC3)nc(C(Cl)(Cl)Cl)n2)c1 [Compound 193]
D6 (P. falciparum D6; SYBR Green Assay): 29 ng/mL
W2 (P. falciparum W2; SYBR Green Assay): 22 ng/mL
C235 (P. falciparum C235; SYBR Green Assay): 17 ng/mL
In vivo Results Thompson Assay (n/N Cures or Suppressive) (P. berghei; (80 × 3): 80 mg/kg for 3 days): (80 × 3) Suppressive
hERG [1, 2]: 93%

CN1CCN(c2nc(-c3ccc(C(Cl)(Cl)Cl)cc3)nc(C(Cl)(Cl)Cl)n2)CC1 [Compound 99]
D6 (P. falciparum D6; SYBR Green Assay): 59 ng/mL
W2 (P. falciparum W2; SYBR Green Assay): 12 ng/mL
C235 (P. falciparum C235; SYBR Green Assay): 21 ng/mL
In vivo Results Thompson Assay (n/N Cures or Suppressive) (P. berghei; (80 × 3): 80 mg/kg for 3 days): (80 × 3) Suppressive
hERG [1, 2]: 16%

NC1(CNC2═NC(═NC(═N2)C2═CC═C(C═C2)C2═CC═CC═C2)C(Cl)(Cl)Cl)CCCC1 [Compound 672]
D6 (P. falciparum D6; SYBR Green Assay): 46 ng/mL
W2 (P. falciparum W2; SYBR Green Assay): 30 ng/mL
C235 (P. falciparum C235; SYBR Green Assay): 68 ng/mL
In vivo Results Thompson Assay (n/N Cures or Suppressive) (P. berghei; (80 × 3): 80 mg/kg for 3 days): (80 × 3) 4/4 Cures
hERG ([1]; hERG activity as % inhibition): 33%

FC(F)(F)OC1═CC═C(NC2═NC(═NC(═N2)N2CCCNCC2)C(Cl)(Cl)Cl)C═C1 [Compound 659]
D6 (P. falciparum D6; SYBR Green Assay): 19 ng/mL
W2 (P. falciparum W2; SYBR Green Assay): 18 ng/mL
C235 (P. falciparum C235; SYBR Green Assay): 38 ng/mL
In vivo Results Thompson Assay (n/N Cures or Suppressive) (P. berghei; (80 × 3): 80 mg/kg for 3 days): (80 × 3) 4/5 Cures
hERG ([1]; hERG activity as % inhibition): 58%

OCCN1CCN(c2nc(-c3ccc(C(Cl)(Cl)Cl)cc3)nc(C(Cl)(Cl)Cl)n2)CC1 [Compound 119]
D6 (P. falciparum D6; SYBR Green Assay): 29 ng/mL
W2 (P. falciparum W2; SYBR Green Assay): 12 ng/mL
C235 (P. falciparum C235; SYBR Green Assay): 46 ng/mL
In vivo Results Thompson Assay (n/N Cures or Suppressive) (P. berghei; (40 × 3): 40 mg/kg for 3 days): 1/5
In vivo Results Thompson Assay (n/N Cures or Suppressive) (P. berghei; (80 × 3): 80 mg/kg for 3 days): 4/5
hERG [1, 2]: 18%

FC(F)(F)c1cccc(-c2nc(N3CC4CC3CN4)nc(C(Cl)(Cl)Cl)n2)c1 (centres unmarked) [Ex. 7, 2-(4-(trichloromethyl)-6-(3-(trifluoromethyl)phenyl)-1,3,5-triazin-2-yl)-2,5-diazabicyclo[2.2.1]heptane]
IC50 (P. falciparum D6; [3]): 0.106 µg/mL (≈ 0.242 µM)
IC50 (P. falciparum W2; [3]): 0.126 µg/mL (≈ 0.287 µM)
IC50 (P. falciparum C235; [3]): 0.192 µg/mL (≈ 0.438 µM)
In vivo Results Thompson Assay (n/N Cures or Suppressive) (P. berghei; (80 × 3): 80 mg/kg for 3 days): Suppressive
In vivo Results Thompson Assay (n/N Cures or Suppressive) (P. berghei; (160 × 3): 160 mg/kg for 3 days): 4/5
hERG ([1]; hERG activity as % inhibition): 29%

ClC(Cl)(Cl)c1nc(NCCCN2CCCC2)nc(Nc3ccc(cc3)n4cccn4)n1 [Compound 728]
D6 (P. falciparum D6; SYBR Green Assay): 77 ng/mL
W2 (P. falciparum W2; SYBR Green Assay): 27 ng/mL
C235 (P. falciparum C235; SYBR Green Assay): 79 ng/mL
In vivo Results Thompson Assay (n/N Cures or Suppressive) (P. berghei; (80 × 3): 80 mg/kg for 3 days): (80 × 3) Suppressive
hERG ([1]; hERG activity as % inhibition): 116%

FC(F)(F)c1cccc(-c2nc(N3CCCNCC3)nc(C(Cl)(Cl)Cl)n2)c1 [Compound 108]
D6 (P. falciparum D6; SYBR Green Assay): 70 ng/mL
W2 (P. falciparum W2; SYBR Green Assay): 47 ng/mL
C235 (P. falciparum C235; SYBR Green Assay): 82 ng/mL
In vivo Results Thompson Assay (n/N Cures or Suppressive) (P. berghei; (80 × 3): 80 mg/kg for 3 days): (80 × 3) Suppressive
hERG [1, 2]: 28%

CCN1CCCC(Nc2nc(-c3ccc(C(C)(C)C)cc3)nc(C(Cl)(Cl)Cl)n2)C1 (centres unmarked) [Compound 79]
D6 (P. falciparum D6; SYBR Green Assay): 26 ng/mL
W2 (P. falciparum W2; SYBR Green Assay): 25 ng/mL
C235 (P. falciparum C235; SYBR Green Assay): 36 ng/mL
In vivo Results Thompson Assay (n/N Cures or Suppressive) (P. berghei; (80 × 3): 80 mg/kg for 3 days): (80 × 3) Suppressive
hERG [1, 2]: 51%

CC(C)(N)CNc1nc(-c2ccccc2)nc(C(Cl)(Cl)Cl)n1 [Compound 312]
D6 (P. falciparum D6; SYBR Green Assay): 8 ng/mL
W2 (P. falciparum W2; SYBR Green Assay): 3 ng/mL
C235 (P. falciparum C235; SYBR Green Assay): 18 ng/mL
In vivo Results Thompson Assay (n/N Cures or Suppressive) (P. berghei; (40 × 3): 40 mg/kg for 3 days): Suppressive
In vivo Results Thompson Assay (n/N Cures or Suppressive) (P. berghei; (80 × 3): 80 mg/kg for 3 days): (80 × 3) 3/3 Cures;(40 × 3)
hERG [1, 2]: 65%
